Data taken from US9877961B2, “Anticoagulant reversal agents” (PEROSPHERE INC., priority 2011, dated 2018).
Marks after values point to notes of the source that are not given here.

Tests used:
[1] = assumption used for Table 3; cited from earlier work
[2] = tested on: apixaban (ELIQUIS®) anticoagulation; test: Rat tail transection bleeding assay, apixaban; format: in vivo; settings: apixaban, oral; Bleeding assay; minimal in vivo reversal dose; assumes 50% oral bioavailability
Method: (§1) Rat tail bleeding assay or rat tail transection assay is an assay that measures blood loss, e.g., blood loss after drug administration. In one embodiment, where the effect of the compound of the invention (e.g., DAP) is being tested, at the Tmax of the anticoagulant, DAP is administered intravenously. After 20 minutes, rat tails are transected approximately 1 mm from the tip, placed in room temperature saline, and blood is collected for 30 minutes and weighed.
(§2) Three rats each were administered 2 mg of rivaroxaban. One rat received a sham reversal containing no DAP, the second received 2.5 mg of DAP, and the third received 12.5 mg DAP. A fourth fat received sham anticoagulant and reversal doses (“sham”). 20 minutes after the reversal dose, tails were transected 1 mm from the tip, placed in room temperature saline, and blood loss was collected for 30 minutes and then weighed.
Same procedures were used with 1.25 mg apixaban (ELIQUIS®) alone or in combination with 5 or 12.5 mg DAP; with 15.5 mg dabigatran etexilate (PRADAXA®) alone or in combination with 5 or 12.5 mg DAP; and with 5 mg edoxaban (LIXIANA®) alone or in combination with 12.5 mg DAP.

[3] = Binding of anticoagulants to DAP (DLS; summary Tables 2 and 3); settings: lowest DAP:anticoagulant ratio with association above 50 nm apparent diameter in phosphate buffered saline
[4] = tested on: dabigatran (PRADAXA®) anticoagulation; test: DAP reversal of dabigatran (PRADAXA®) anticoagulation in vivo, aPTT; parameters: species or system rat; settings: 40 mg/kg oral gavage, 2 hours; baseline 43 seconds
Text: The activated partial thromboplastin time (aPTT) assay is an assay that measures how long it takes for the blood to clot. Blood samples are collected for direct measurement or in tubes with oxalate and citrate to arrest coagulation by calcium until the assay can be performed. In the assay, a phospholipid, an activator (silica, celite, kaolin, ellagic acid, etc.), and calcium are mixed into the plasma to induce coagulation. The assay measures the time until a thrombus (clot) forms.
A male albino rat, weighing 430 g, was administered 40 mg/kg of PRADAXA® (20 mg PRADAXA®; overdose of PRADAXA®) by oral gavage.
Approximately 2 hours into PRADAXA® treatment, 200 mg/kg DAP (100 mg DAP) was administered as an intravenous bolus injection. Approximately 2 hours later, the rat was administered a dose of 100 mg/kg of DAP (50 mg DAP). In another hour, the rat was administered another dose of 100 mg/kg of DAP (50 mg DAP). aPTT was measured throughout the course of the entire treatment.

[5] = cited from earlier work
[6] = tested on: fondaparinux anticoagulation; test: DAP reversal of fondaparinux (ARIXTRA®) anticoagulation in vivo, chromogenic Factor Xa assay; parameters: species or system rat; settings: fondaparinux s.c.; Xa kit; 200 mg/kg DAP was the lowest dose administered
Method: The anti-factor Xa assay directly measures anti-factor Xa activity. The methodology behind an anti-factor Xa assay is that patient plasma is added to a known amount of excess factor Xa and excess antithrombin. If a factor Xa inhibitor is present in the patient plasma, it will reduce the enzymatic activity of factor Xa. The amount of residual factor Xa is inversely proportional to the amount of anti-Xa agent in the plasma. The amount of residual factor Xa is detected by adding a chromogenic substrate that mimics the natural substrate of factor Xa, making residual factor Xa cleave it, releasing a colored compound that can be detected by a spectrophotometer. […] Results are given in anticoagulant concentration in units/mL of antifactor Xa, such that high values indicate high levels of anticoagulation and low values indicate low levels of anticoagulation.
5 mg/kg fondaparinux was administered subcutaneously to rats. 200 mg/kg DAP was administered intravenously after 2 hours. Activity was measured by chromogenic 510 k cleared Factor Xa Assay (Biophen) at 10, 20, 30 and 60 minutes after DAP administration.

Factor Xa = settings: cited from earlier work
[7] = tested on: rivaroxaban anticoagulation; test: Rat tail transection bleeding assay, rivaroxaban; format: in vivo; settings: rivaroxaban, oral; Bleeding assay; minimal in vivo reversal dose; assumes 60% oral bioavailability
Method: as §1, §2

DLS Binding Molar Ratio [DAP/drug] [3] | SMILES | oral bioavailability (assumed) [1] | Reversal Molar Ratio [DAP/drug] [2] | aPTT after PRADAXA® administration [4] | time to peak steady-state plasma concentration ([5]; patients, 2.5 mg once daily, post-dose) | absolute bioavailability ([5]; subcutaneous injection) | Reversal Molar Ratio [DAP/drug] [6] | potentiation of innate neutralization of Factor Xa by ATIII (Factor Xa) | Reversal Molar Ratio [DAP/drug] [7]
10 | COc1ccc(-n2nc(C(N)=O)c3c2C(=O)N(c2ccc(N4CCCCC4=O)cc2)CC3)cc1 [Apixaban, 1-(4-methoxyphenyl)-7-oxo-6-[4-(2-oxopiperidin-1-yl)phenyl]-4,5-dihydropyrazolo[5,4-c]pyridine-3-carboxamide] | 50% | 8* |  |  |  |  |  | 
 | CCCCCCOC(=O)NC(=N)c1ccc(NCc2nc3cc(C(=O)N(CCC(=O)OCC)c4ccccn4)ccc3n2C)cc1.CS(=O)(=O)O [Dabigatran etexilate, β-Alanine, N-[[2-[[[4-[[[(hexyloxy)carbonyl]amino]iminomethyl]phenyl]amino]methyl]-1-methyl-1H-benzimidazol-5-yl]carbonyl]-N-2-pyridinyl-,ethyl ester, methanesulfonate] | 5% |  | 81 s |  |  |  |  | 
9 | O=C(NC[C@H]1CN(c2ccc(N3CCOCC3=O)cc2)C(=O)O1)c1ccc(Cl)s1 [Rivaroxaban, 5-Chloro-N-({(5S)-2-oxo-3-[4-(3-oxo-4-morpholinyl)phenyl]-1,3-oxazolidin-5-yl}methyl)-2-thiophenecarboxamide] | 60% |  |  |  |  |  |  | 3*

SMILES | DLS Binding Molar Ratio [DAP/drug] [3] | oral bioavailability (assumed) [1] | Reversal Molar Ratio [DAP/drug] [2] | aPTT after PRADAXA® administration [4] | time to peak steady-state plasma concentration ([5]; patients, 2.5 mg once daily, post-dose) | absolute bioavailability ([5]; subcutaneous injection) | Reversal Molar Ratio [DAP/drug] [6] | potentiation of innate neutralization of Factor Xa by ATIII (Factor Xa) | Reversal Molar Ratio [DAP/drug] [7]
CO[C@H]1O[C@H](COS(=O)(=O)[O-])[C@@H](O[C@@H]2O[C@@H](C(=O)[O-])[C@@H](O[C@H]3O[C@H](COS(=O)(=O)[O-])[C@@H](O[C@@H]4O[C@H](C(=O)[O-])[C@@H](O[C@H]5O[C@H](COS(=O)(=O)[O-])[C@@H](O)[C@H](O)[C@H]5NS(=O)(=O)[O-])[C@H](O)[C@H]4O)[C@H](OS(=O)(=O)[O-])[C@H]3NS(=O)(=O)[O-])[C@H](O)[C@H]2OS(=O)(=O)[O-])[C@H](O)[C@H]1NS(=O)(=O)[O-].[Na+].[Na+].[Na+].[Na+].[Na+].[Na+].[Na+].[Na+].[Na+].[Na+] [Fondaparinux, methyl O-2-deoxy-6-O-sulfo-2-(sulfoamino)-α-D-glucopyranosyl-(1→4)-O-β-D-glucopyra-nuronosyl-(1→4)-O-2-deoxy-3,6-di-O-sulfo-2-(sulfoamino)-α-D-glucopyranosyl-(1→4)-O-2-O-sulfo-α-L-idopyranuronosyl-(1→4)-2-deoxy-6-O-sulfo-2-(sulfoamino)-α-D-glucopyranoside, decasodium salt] | 3 |  |  |  | approximately 3 hours | 100% | 130 | about 300 times | 
